Experiments:
[1] = biological target: Epidermal growth factor receptor (Homo sapiens) (UniProt P00533); conditions: MCF7, at 10 µM
Description: Inhibition of EGFR in human MCF7 cells assessed as reduction in EGFR phosphorylation at 10 uM incubated for 48 hrs by Western blot analysis

A549 [2] = assay: Antiproliferative activity against human A549 cells assessed as growth inhibition at 10 uM incubated for 24 hrs by MTT assay (reference value: 0%); type: functional; conditions: A549, 24 h, read-out: GI
[3] = Selectivity index, ratio of cytotoxic IC50 for human MCF10A cells to antiproliferative IC50 for human MCF7 cells; type: toxicity; conditions: MCF10A cells and MCF7 cells, read-out: Ratio IC50
MCF7 [4] = assay: Antiproliferative activity against human MCF7 cells assessed as growth inhibition at 10 uM incubated for 24 hrs by MTT assay (reference value: 0%); type: functional; conditions: MCF7, 24 h, read-out: GI
A549 [5] = assay: Antiproliferative activity against human A549 cells assessed as growth inhibition at 1 uM incubated for 24 hrs by MTT assay (reference value: 0%); type: functional; conditions: A549, 24 h, read-out: GI
MCF7 [6] = assay: Antiproliferative activity against human MCF7 cells assessed as growth inhibition at 1 uM incubated for 24 hrs by MTT assay (reference value: 0%); type: functional; conditions: MCF7, 24 h, read-out: GI
MCF7 [7] = assay: Antiproliferative activity against human MCF7 cells assessed as growth inhibition at 0.1 uM incubated for 24 hrs by MTT assay (reference value: 0%); type: functional; conditions: MCF7, 24 h, read-out: GI
MCF-10A = assay: Cytotoxicity against human MCF10A cells assessed as reduction in cell viability incubated for 24 hrs by MTT assay; type: ADME, cell-based
MCF7 [8] = assay: Antiproliferative activity against human MCF7 cells assessed as reduction in cell growth incubated for 24 hrs by MTT assay; type: functional, cell-based; conditions: MCF7, 24 h
A549 [9] = assay: Antiproliferative activity against human A549 cells assessed as growth inhibition at 0.1 uM incubated for 24 hrs by MTT assay (reference value: 0%); type: functional; conditions: A549, 24 h, read-out: GI
A549 [10] = assay: Antiproliferative activity against human A549 cells assessed as reduction in cell growth incubated for 24 hrs by MTT assay; type: functional, cell-based; conditions: A549, 24 h

Sequence of Epidermal growth factor receptor (Homo sapiens) (P00533 whole entry): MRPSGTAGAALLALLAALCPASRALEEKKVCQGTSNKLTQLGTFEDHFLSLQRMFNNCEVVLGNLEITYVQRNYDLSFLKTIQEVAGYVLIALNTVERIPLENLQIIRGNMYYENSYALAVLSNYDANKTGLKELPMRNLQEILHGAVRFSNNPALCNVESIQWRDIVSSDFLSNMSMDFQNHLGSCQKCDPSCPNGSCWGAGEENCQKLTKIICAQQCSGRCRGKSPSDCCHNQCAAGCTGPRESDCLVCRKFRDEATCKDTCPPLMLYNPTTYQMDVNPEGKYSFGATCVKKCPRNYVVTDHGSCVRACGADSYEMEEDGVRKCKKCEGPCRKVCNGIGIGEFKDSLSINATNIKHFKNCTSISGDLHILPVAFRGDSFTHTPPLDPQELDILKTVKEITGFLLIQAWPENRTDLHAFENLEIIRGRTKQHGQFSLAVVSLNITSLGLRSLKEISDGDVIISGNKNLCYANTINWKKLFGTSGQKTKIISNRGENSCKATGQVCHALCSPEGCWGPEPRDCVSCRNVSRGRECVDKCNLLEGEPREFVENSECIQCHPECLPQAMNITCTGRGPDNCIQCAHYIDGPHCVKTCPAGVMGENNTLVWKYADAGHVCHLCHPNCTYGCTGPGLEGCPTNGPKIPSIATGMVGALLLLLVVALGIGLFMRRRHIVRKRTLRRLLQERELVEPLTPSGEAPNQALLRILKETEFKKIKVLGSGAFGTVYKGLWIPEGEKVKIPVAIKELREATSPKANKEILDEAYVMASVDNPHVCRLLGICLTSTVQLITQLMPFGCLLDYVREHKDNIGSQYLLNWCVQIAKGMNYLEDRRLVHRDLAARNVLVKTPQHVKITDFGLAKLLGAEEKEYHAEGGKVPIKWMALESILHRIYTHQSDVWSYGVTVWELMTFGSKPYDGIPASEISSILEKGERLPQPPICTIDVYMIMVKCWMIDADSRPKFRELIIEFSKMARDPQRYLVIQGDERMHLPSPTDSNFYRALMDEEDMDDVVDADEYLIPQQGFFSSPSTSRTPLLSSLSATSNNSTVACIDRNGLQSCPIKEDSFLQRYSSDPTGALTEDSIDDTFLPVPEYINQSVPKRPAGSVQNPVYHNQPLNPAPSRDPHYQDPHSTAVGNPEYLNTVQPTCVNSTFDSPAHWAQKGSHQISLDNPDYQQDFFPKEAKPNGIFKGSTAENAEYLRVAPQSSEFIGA

Compound	inhibition [1]	inhibition of growth at 10 µM (A549 [2])	selectivity ratio [3]	inhibition of growth at 10 µM (MCF7 [4])	inhibition of growth at 1 µM (A549 [5])	inhibition of growth at 1 µM (MCF7 [6])	inhibition of growth at 0.1 µM (MCF7 [7])	IC50 (MCF-10A)	IC50 (MCF7 [8])	inhibition of growth at 0.1 µM (A549 [9])	IC50 (A549 [10])
COc1ccc(NC(=O)Cn2cc(COc3ccccc3OCc3cn(CC(=O)Nc4ccc(OC)cc4)nn3)nn2)cc1	88.3%	15.4%	8	96%	6.56%	24%	18.4%	33.4 µM	4.18 µM	5.57%	
O=C(Cn1cc(COc2ccccc2OCc2cn(CC(=O)Nc3ccc(Cl)cc3)nn2)nn1)Nc1ccc(Cl)cc1	72.7%	73.5%	5	79.9%	25.4%	42.9%	39%	14 µM	2.8 µM	1.89%	5.61 µM
O=C(Cn1cc(COc2ccccc2OCc2cn(CC(=O)Nc3ccc([N+](=O)[O-])cc3)nn2)nn1)Nc1ccc([N+](=O)[O-])cc1		11.8%		12.7%	10.7%	15%	14.2%			5.9%	
O=C(Cn1cc(COc2cccc(OCc3cn(CC(=O)Nc4ccc([N+](=O)[O-])cc4)nn3)c2)nn1)Nc1ccc([N+](=O)[O-])cc1		98.6%		5.44%	42.4%	4.58%	4.96%			25.5%	2.22 µM
O=C(Cn1cc(COc2ccccc2OCc2cn(CC(=O)Nc3ccccc3)nn2)nn1)Nc1ccccc1		44.3%		12.9%	6.8%	12.1%	11.3%			0%	
COc1ccc(NC(=O)Cn2cc(COc3cccc(OCc4cn(CC(=O)Nc5ccc(OC)cc5)nn4)c3)nn2)cc1		94.5%		33.3%	42.8%	11.1%	11.9%			7.26%	2.34 µM
O=C(Cn1cc(COc2cccc(OCc3cn(CC(=O)Nc4ccccc4)nn3)c2)nn1)Nc1ccccc1		69.2%		22.1%	10.8%	13.8%	14.5%			11.4%	7.05 µM
O=C(Cn1cc(COc2cccc(OCc3cn(CC(=O)Nc4ccc(Cl)cc4)nn3)c2)nn1)Nc1ccc(Cl)cc1	32.6%	3.36%		64%	-0.17%	31.7%	16.2%		6.13 µM	1.16%	
Cc1ccc(NC(=O)Cn2cc(COc3ccccc3OCc3cn(CC(=O)Nc4ccc(C)cc4)nn3)nn2)cc1	28.2%	86.6%		63.8%	12.8%	25.7%	25.4%		6.7 µM	8.92%	5.56 µM
Cc1ccc(NC(=O)Cn2cc(COc3cccc(OCc4cn(CC(=O)Nc5ccc(C)cc5)nn4)c3)nn2)cc1	76.9%	34.1%		82.6%	7.51%	9.47%	5.16%		6.01 µM	0%	
